This experiment concerns the target human plasma kallikrein (Homo sapiens (Human), UniProt P03952). The note with it: human plasma kallikrein 25 pM, substrate 0.5 uM, 1 hour pre-incubation at room temperature, read at t=60 min.
Chain of human plasma kallikrein (P03952 whole entry, looked up): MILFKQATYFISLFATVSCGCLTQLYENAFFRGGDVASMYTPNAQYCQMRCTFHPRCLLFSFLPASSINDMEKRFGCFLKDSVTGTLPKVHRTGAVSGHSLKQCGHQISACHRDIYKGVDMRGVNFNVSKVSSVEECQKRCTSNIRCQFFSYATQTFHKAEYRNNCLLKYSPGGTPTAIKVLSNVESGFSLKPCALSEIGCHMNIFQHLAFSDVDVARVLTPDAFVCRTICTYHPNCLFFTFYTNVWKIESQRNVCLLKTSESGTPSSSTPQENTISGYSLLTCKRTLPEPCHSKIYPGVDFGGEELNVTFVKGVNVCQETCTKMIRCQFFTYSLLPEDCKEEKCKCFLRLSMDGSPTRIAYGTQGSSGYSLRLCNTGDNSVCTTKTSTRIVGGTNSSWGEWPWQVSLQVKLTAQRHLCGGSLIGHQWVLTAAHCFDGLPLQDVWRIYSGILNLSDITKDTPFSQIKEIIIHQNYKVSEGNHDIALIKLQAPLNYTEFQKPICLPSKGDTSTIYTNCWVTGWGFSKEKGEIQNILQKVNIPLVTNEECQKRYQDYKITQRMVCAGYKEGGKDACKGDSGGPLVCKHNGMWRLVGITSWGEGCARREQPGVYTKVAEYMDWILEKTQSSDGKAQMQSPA
Chain of human plasma kallikrein (P03952 whole entry partner, looked up): as the sequence (P03952 whole entry, looked up) above
Turning to `Cc1cc(N)nc(C)c1CNC(=O)c1cc(S(=O)(=O)N2CCOCC2)c[nH]1` [Example 52, N-((6-amino-2,4-dimethylpyridin-3-yl)methyl)-4-(morpholinosulfonyl)-1H-pyrrole-2-carboxamide], the IC50 was found to be 5700 nM. With `COc1ccc(S(=O)(=O)n2ccc(C(=O)NCc3c(C)cc(N)nc3C)c2)cc1` [Example 12, 1-(4-Methoxy-benzenesulfonyl)-1H-pyrrole-3-carboxylic acid (6-amino-2,4-dimethyl-pyridin-3-ylmethyl)-amide] the figure was 1370 nM. In the case of `Cc1cc(N)nc(C)c1CNC(=O)c1cn(Cc2ccccc2)cn1` [Example 22, N-((6-amino-2,4-dimethylpyridin-3-yl)methyl)-1-benzyl-1H-imidazole-4-carboxamide] it was 1700 nM; in that of `Cc1cc(N)nc(C)c1CNC(=O)c1cnn(Cc2ccc(Cn3c(C)cc(=O)n3C)cc2)c1` [Example 141, N-((6-amino-2,4-dimethylpyridin-3-yl)methyl)-1-(4-((2,5-dimethyl-3-oxo-2,3-dihydro-1H-pyrazol-1-yl)methyl)benzyl)-1H-pyrazole-4-carboxamide], 1.2 nM; in that of `Cc1cc(N)nc(C)c1CNC(=O)c1cc(C)n(S(=O)(=O)c2ccccc2)c1C` [Example 72, N-((6-amino-2,4-dimethylpyridin-3-yl)methyl)-2,5-dimethyl-1-(Phenylsulfonyl)-1H-pyrrole-3-carboxamide], 937 nM. With `Cc1cc(N)nc(C)c1CNC(=O)c1cnn(Cc2ccc(C(=O)N3CCOCC3)cc2)c1` [Example 121, N-((6-amino-2,4-dimethylpyridin-3-yl)methyl)-1-(4-(morpholine-4-carbonyl)benzyl)-1H-pyrazole-4-carboxamide] the figure was 369 nM; with `Cc1cc(N)nc(C)c1CNC(=O)c1cn(Cc2cccc(N3CCCC3)c2)nn1` [Example 43, N-((6-amino-2,4-dimethylpyridin-3-yl)methyl)-1-(3-(pyrolidin-1-yl)benzyl)-1H-1,2,3-triazole-4-carboxamide], 113 nM; with `Cc1nc(N)cc(Cl)c1CNC(=O)c1cnn(Cc2ccc3ccccc3c2)c1` [Example 172, N-((6-amino-4-chloro-2-methylpyridin-3-yl)methyl)-1-(naphthalen-2-ylmethyl)-1H-pyrazole-4-carboxamide], 60 nM. `Cc1cncc(Oc2ccc(Cn3cc(C(=O)NCc4c(C)cc(N)nc4C)cn3)cc2)n1` [Example 57, N-((6-amino-2,4-dimethylpyridin-3-yl)methyl)-1-(4-(6-methylpyrazin-2-yloxy)benzyl)-1H-pyrazole-4-carboxamide] yielded an IC50 of 144 nM. `Cc1cc(N)nc(C)c1CNC(=O)c1cn(Cc2ccccc2)nc1C` [Example 49, N-((6-amino-2,4-dimethylpyridin-3-yl)methyl)-1-benzyl-3-methyl-1H-pyrazole-4-carboxamide]: the midpoint of inhibition, the IC50, lay at 679 nM.

`Cc1cc(N)nc(C)c1CNC(=O)c1cnn(Cc2noc3ccccc23)c1` [Example 106, N-((6-amino-2,4-dimethylpyridin-3-yl)methyl)-1-(benzo[d]isoxazol-3-ylmethyl)-1H-pyrazole-4-carboxamide] showed an IC50 of 415 nM. With `Cc1cc(N)nc(C)c1CNC(=O)c1ccn(S(=O)(=O)c2ccc(-c3ccccc3)cc2)c1` [Example 127, N-((6-amino-2,4-dimethylpyridin-3-yl)methyl)-1-(biphenyl-4-ylsulfonyl)-1H-pyrrole-3-carboxamide] the figure was 16 nM. Regarding `Cc1cc(N)nc(C)c1CNC(=O)c1cn(Cc2ccc3c(c2)c(C)c(C)n3C)nn1` [Example 166, N-((6-amino-2,4-dimethylpyridin-3-yl)methyl)-1-((1,2,3-trimethyl-1H-indol-5-yl)methyl)-1H-1,2,3-triazole-4-carboxamide], the concentration for half-maximal inhibition (IC50) is 0.2 nM. Turning to `Cc1ccc2cc(Cn3cc(C(=O)NCc4c(C)cc(N)nc4C)cn3)ccc2n1` [Example 154, N-((6-amino-2,4-dimethylpyridin-3-yl)methyl)-1-((2-methylquinolin-6-yl)methyl)-1H-pyrazole-4-carboxamide], the half-maximal inhibitory concentration (IC50) is 2 nM.

As for `COCCN1CCCc2ccc(Cn3cc(C(=O)NCc4c(C)cc(N)nc4C)cn3)cc21` [Example 150, N-((6-Amino-2,4-dimethylpyridin-3-yl)methyl)-1-((1-(2-methoxyethyl)-1,2,3,4-tetrahydroquinolin-7-yl)methyl)-1H-pyrazole-4-carboxamide], half-maximal inhibition (IC50) was put at 10 nM. In the case of `Cc1cc(N)nc(C)c1CNC(=O)c1cnn(Cc2ccc(C(=O)Nc3ccn(C)n3)cc2)c1` [Example 122, N-((6-amino-2,4-dimethylpyridin-3-yl)methyl)-1-(4-(1-methyl-1H-pyrazol-3-ylcarbamoyl)benzyl)-1H-pyrazole-4-carboxamide] it was 752 nM; in that of `Cc1cc(N)nc(C)c1CNC(=O)c1cn(Cc2ccc(Cn3cccn3)cc2)cn1` [Example 6, 1-(4-((1H-pyrazol-1-yl)methyl)benzyl)-N-((6-amino-2,4-dimethylpyridin-3-yl)methyl)-1H-imidazole-4-carboxamide], 0.2 nM; in that of `Cc1cc(N)nc(C)c1CNC(=O)c1cnn(Cc2ccc3c(c2)nnn3C)c1` [Example 101, N-((6-amino-2,4-dimethylpyridin-3-yl)methyl)-1-((1-methyl-1H-benzo[d][1,2,3]triazol-5-yl)methyl)-1H-pyrazole-4-carboxamide], 70 nM. Regarding `Cc1cc(N)nc(C)c1CNC(=O)c1ccn(S(=O)(=O)c2ccc(Cl)s2)c1` [Example 128, N-((6-amino-2,4-dimethylpyridin-3-yl)methyl)-1-(5-chlorothiophen-2-ylsulfonyl)-1H-pyrrole-3-carboxamide], 301 nM corresponded to half-maximal inhibition (IC50).

`Cc1cc(N)nc(C)c1CNC(=O)c1cnn(Cc2ccc(F)cc2F)c1` [Example 93, N-((6-amino-2,4-dimethylpyridin-3-yl)methyl)-1-(2,4-difluorobenzyl)-1H-pyrazole-4-carboxamide]: the IC50 is 674 nM. With `Cc1cc(N)nc(C)c1CNC(=O)c1cnn(Cc2csc(Cc3ccccc3)n2)c1` [Example 27, N-((6-amino-2,4-dimethylpyridin-3-yl)methyl)-1-((2-benzylthiazol-4-yl)methyl)-1H-pyrazole-4-carboxamide] the figure was 21 nM; with `Cc1cc(N)nc(C)c1CNC(=O)c1cnn(Cc2ccncc2)c1` [Example 18, N-((6-amino-2,4-dimethylpyridin-3-yl)methyl)-1-(pyridin-4-ylmethyl)-1H-pyrazole-4-carboxamide], 1100 nM; with `Cc1cc(N)nc(C)c1CNC(=O)c1cnn(Cc2ccc3c(c2)N(C)CCC3)c1` [Example 152, N-((6-Amino-2,4-dimethylpyridin-3-yl)methyl)-1-((1-methyl-1,2,3,4-tetrahydroquinolin-7-yl)methyl)-1H-pyrazole-4-carboxamide], 4 nM. Turning to `Cc1cc(N)nc(C)c1CNC(=O)c1cnn(C(CO)c2ccccc2)c1` (stereo not shown) [Example 11, N-((6-amino-2,4-dimethylpyridin-3-yl)methyl)-1-(2-hydroxy-1-phenylethyl)-1H-pyrazole-4-carboxamide], half-maximal inhibition (IC50) was put at 12200 nM. Turning to `Cc1cnn(Cc2ccc(Cn3cc(C(=O)NCc4c(C)cc(N)nc4C)cn3)cc2)c1` [Example 146, N-((6-amino-2,4-dimethylpyridin-3-yl)methyl)-1-(4-((4-methyl-1H-pyrazol-1-yl)methyl)benzyl)-1H-pyrazole-4-carboxamide], it took 0.04 nM to reach half-maximal inhibition (IC50).
